In ChEMBL document CHEMBL4371009, “Polypharmacology by Design: A Medicinal Chemist's Perspective on Multitargeting Compounds” (J Med Chem, 2019) one finds Ki data, which are given here for 1 molecule.

As a reminder, the Ki is a measure of affinity in units of concentration, obtained from inhibition or displacement. Low values mean a stronger hold on the target, high ones a looser hold on the target.

Experiment [1] addresses T1, 5-hydroxytryptamine receptor 1A (Homo sapiens, UniProt P08908).
T1 sequence (P08908 whole entry): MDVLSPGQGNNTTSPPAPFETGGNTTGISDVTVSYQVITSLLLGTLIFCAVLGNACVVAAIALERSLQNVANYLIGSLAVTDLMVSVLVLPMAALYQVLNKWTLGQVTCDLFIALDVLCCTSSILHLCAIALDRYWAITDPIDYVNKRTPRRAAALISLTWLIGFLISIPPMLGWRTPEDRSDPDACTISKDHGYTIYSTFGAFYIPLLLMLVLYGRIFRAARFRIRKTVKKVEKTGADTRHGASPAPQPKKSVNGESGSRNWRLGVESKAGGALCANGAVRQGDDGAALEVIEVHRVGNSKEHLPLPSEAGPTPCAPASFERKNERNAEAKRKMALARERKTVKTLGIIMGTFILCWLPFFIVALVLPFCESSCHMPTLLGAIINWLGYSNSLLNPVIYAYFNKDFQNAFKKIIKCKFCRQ
Put plainly: Displacement of [3H]-Way100635 from 5HT1A (unknown origin) expressed in CHO cell membranes. A general note: Displacement assays read how much labelled ligand stays bound in the presence of the test substance.

The target in experiment [2] is D(3) dopamine receptor (Homo sapiens, UniProt P35462). Put plainly: Displacement of [3H]-N-methylspiperone from dopamine D3 receptor (unknown origin) expressed in HEK293 cell membranes.
D(3) dopamine receptor, sequence (P35462 whole entry): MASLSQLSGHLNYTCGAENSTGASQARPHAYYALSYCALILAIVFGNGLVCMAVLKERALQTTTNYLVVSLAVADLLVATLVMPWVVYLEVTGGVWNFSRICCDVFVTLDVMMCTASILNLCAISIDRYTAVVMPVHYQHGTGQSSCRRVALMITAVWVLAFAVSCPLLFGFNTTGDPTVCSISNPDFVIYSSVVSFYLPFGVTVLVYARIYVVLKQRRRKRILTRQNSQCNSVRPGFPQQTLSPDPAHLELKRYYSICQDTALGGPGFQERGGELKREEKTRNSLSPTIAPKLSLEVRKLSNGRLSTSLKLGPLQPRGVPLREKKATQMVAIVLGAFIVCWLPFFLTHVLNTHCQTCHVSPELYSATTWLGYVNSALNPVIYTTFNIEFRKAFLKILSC
Experiment [3] addresses T2, D(4) dopamine receptor (Homo sapiens, UniProt P21917).
T2 sequence (P21917 whole entry): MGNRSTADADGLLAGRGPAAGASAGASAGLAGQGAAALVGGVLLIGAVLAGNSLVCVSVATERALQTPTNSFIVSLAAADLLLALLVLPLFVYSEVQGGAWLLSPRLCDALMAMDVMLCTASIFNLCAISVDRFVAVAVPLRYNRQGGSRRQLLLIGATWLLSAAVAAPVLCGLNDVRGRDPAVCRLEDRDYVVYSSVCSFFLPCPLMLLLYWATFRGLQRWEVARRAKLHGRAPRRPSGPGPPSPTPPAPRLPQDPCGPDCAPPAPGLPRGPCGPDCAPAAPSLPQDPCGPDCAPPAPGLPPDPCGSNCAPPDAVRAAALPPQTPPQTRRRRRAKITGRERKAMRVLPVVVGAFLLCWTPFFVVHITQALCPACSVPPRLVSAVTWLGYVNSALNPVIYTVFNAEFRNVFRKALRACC
Put plainly: Displacement of [3H]-N-methylspiperone from dopamine D4 receptor (unknown origin) expressed in HEK293 cell membranes.

`COc1cc2c(cc1OC)C(=O)N(CCCCN1CCN(c3ccccn3)CC1)CCC2`: the Ki in experiment [1] turned out to be 1.2 nM; in experiment [2], 3 nM; in experiment [3], 6.5 nM.
